Where a name gives a salt, the structure may show the parent alone.
How the values were obtained:
CRF1 receptor = biological target: T1, CRF1 receptor (Homo sapiens, UniProt P34998); assay: CRF1 Receptor Binding Assay (competition binding, IMR-32 cell membranes); conditions: CRF1 affinity; [125I]Tyr0-ovine CRF, human IMR-32 neuroblastoma cell membranes
T1 construct: Cell membranes are prepared according the method of Dieterich and DeSouza (1996); endogenous in cells; host or cells: IMR-32 human neuroblastoma cells (membranes)
T1 sequence (P34998 24-415): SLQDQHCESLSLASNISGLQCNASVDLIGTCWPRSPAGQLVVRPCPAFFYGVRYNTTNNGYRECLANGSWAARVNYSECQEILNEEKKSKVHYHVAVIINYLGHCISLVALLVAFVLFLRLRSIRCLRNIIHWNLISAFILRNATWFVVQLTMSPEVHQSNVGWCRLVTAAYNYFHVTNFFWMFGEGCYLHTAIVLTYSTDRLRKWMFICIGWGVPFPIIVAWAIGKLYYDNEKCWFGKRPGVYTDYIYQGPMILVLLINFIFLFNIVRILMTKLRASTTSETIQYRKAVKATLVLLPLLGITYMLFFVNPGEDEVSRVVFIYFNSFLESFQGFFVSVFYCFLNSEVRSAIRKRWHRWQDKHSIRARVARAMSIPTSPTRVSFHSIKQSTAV
Procedure: Human IMR-32 neuroblastoma cells are grown to 80% confluence in MEM medium containing 10% heat-inactivated FBS, 1 mM Sodium Pyruvate, and 0.1 mM nonessential amino acids. Cell membranes are prepared according the method of Dieterich and DeSouza (1996). The cells (˜5E+9) are resuspended in 10 volumes of wash buffer (5 mM Tris HCl, 10 mM MgCl2, 2 mM EGTA, pH 7.4 at RT), homogenized with a Polytron, and then centrifuged at 45,000 G for 20 min at 4° C. The membrane pellets are washed twice with wash buffer (45,000 G for 20 min at 4° C.) and then resuspended (50 mM Tris HCl, 10 mM MgCl2, 2 mM EGTA, pH 7.4 at RT). Protein concentration is determined using Pierce reagents and BSA as standard. Aliquots of 1-1.5 mL are stored at −80° C. until binding assay.
The competition binding assay is performed in a final volume of 250 μl which contains assay buffer (50 mM Tris-HCl, 10 MM MgCl2, 2 mM EGTA, 0.2% BSA, 0.1 mM bacitracin and 100 kIU/mL aprotinin pH 7.2 at R.T.), 0.05 nM [^125I]Tyr^0-ovine CRF (Du Pont New England Nuclear), 50 μg of membrane protein, and test compound at various concentrations. Non-specific binding is determined with 1 μM hCRF. Binding reactions are terminated after 2 hr incubation at 25° C. by filtering through 96-w GF/C filter plate using a Packard Harvester (Filtermate 196). The 96-w filter plate is pre-treated with 0.3% polyethyleneimine and pre-washed with washing buffer (50 mM Tris-HCl, 10 mM MgCl2, 2 mM EGTA, 0.2% BSA, pH 7.2 at 4° C.). Unbound radioactivity is removed by four rapid washes (0.8 ml/well) with wash buffer. The radioactivity is quantified using a Packard TopCount. Data are analyzed using non-linear iterative curve fitting to obtain IC50 and Hill slope values. PKi values are derived from pIC50 values (−log of IC50).

SMILES | IC50 (CRF1 receptor) | melting point
CCCN(CC1CC1)c1nc(C)nc2c1CCCC2(C)c1ccc(Cl)cc1 (stereo not drawn) [Compound 4, [8-(4-chloro-phenyl)-2,8-dimethyl-5,6,7,8-tetra-hydro-quinazolin-4-yl]-cyclopropylmethyl-pro-pyl-amine] | 1740 nM | –
COCCN(CCOC)c1nc(C)nc2c1CCCC2c1ccc(Cl)cc1 (stereo not drawn) [Compound 5, [8-(4-Chloro-phenyl)-2-methyl-5,6,7,8-tetrahydro-quina-zolin-4-yl]-bis-(2-methoxy-ethyl)-amine] | 28800 nM | –
CCCN(CC1CC1)c1nc(C)nc2c1CCCC2c1ccc(Cl)cc1 (stereo not drawn) [Compound 3, [8-(4-Chloro-phenyl)-2-methyl-5,6,7,8-tetrahydro-quina-zolin-4-yl]-cyclopropylmethyl-propyl-amine] | 2340 nM | –
CCCN(CC1CC1)c1nc(C)nc2c1CCC[C@@]2(C)c1ccccc1 [Compound 2, Cyclopropylmethyl-((S)-2,8-dimethyl-8-phenyl-5,6,7,8-tetra-hydro-quinazolin-4-yl)-propyl-amine] | 525 nM | –
CCCN(CC1CC1)c1nc(C)nc2c1CCCC2c1ccccc1 (stereo not drawn) [Compound 1, Cyclopropylmethyl-(2-methyl-8-phenyl-5,6,7,8-tetra-hydro-quinazolin-4-yl)-propyl-amine] | 2820 nM | –

Further lines, results first:

IC50 (CRF1 receptor) | melting point | SMILES
661 nM | – | CCCN(CC1CC1)c1nc(C)nc2c1CCC2(C)c1ccc(C)cc1C (stereo not drawn) [Compound 10, Cyclopropylmethyl-[7-(2,4-dimethyl-phenyl)-2,7-di-methyl-6,7-dihydro-5H-cyclopentapyrimidin-4-yl]-pro-pyl-amine]
1120 nM | – | CCCN(CC1CC1)c1nc(C)nc2c1CCC2c1ccc(C)cc1C (stereo not drawn) [Compound 9, Cyclopropylmethyl-[7-(2,4-dimethyl-phenyl)-2-meth-yl-6,7-dihydro-5H-cyclopentapyrimidin-4-yl]-pro-pyl-amine]
11700 nM | – | COCCN(CCOC)c1nc(C)nc2c1CCCC2(C)c1ccc(Cl)cc1 (stereo not drawn) [Compound 6, [8-(4-Chloro-phenyl)-2,8-dimethyl-5,6,7,8-tetra-hydro-quinazolin-4-yl]-bis-(2-methoxy-ethyl)-a-mine]
– | 238.3 to 243.9 °C | CCCC1(CCC)CCCc2c(Nc3ccc(Cl)cc3Cl)nc(C)nc21 (as salt: hydrochloride) [Compound 11, (2,4-Dichloro-phenyl)-(2-methyl-8,8-dipropyl-5,6,7,8-tetra-hydro-quinazolin-4-yl)-amine]

Source: patent publication US7223767B2, “Tetrahydroquinazolines and dihydrocyclopentapyrimidines as CRF antagonists” (Roche Palo Alto LLC, priority 2003, dated 2007)
